Experimental data taken from patent US20170106011A1, “METHODS OF TREATING TRAUMATIC BRAIN INJURY AND SEQUELAE” (Cantex Pharmaceuticals, Inc., priority 2015, published 2017).
Entries after “also recorded” stand apart in the source; their conditions may differ.

How the values were obtained:
[1] = USP anticoagulant assay; format: biochemical
[2] = system: middle cerebral artery occlusion animal model; assay: secondary brain injury after middle cerebral artery occlusion in an animal model; format: in vivo
[3] = system: patients with moderate TBI; assay: clinical trial of ODSH infusion in moderate TBI; format: in vivo; details: ODSH infusion added to best supportive care
Experimental: FIG. 4 outlines the phase II clinical trial of ODSH for treating TBI.
A clinical trial is conducted.
Enrollment criteria are (i) moderate TBI: Glasgow Coma Score (GCS) of 9-12, or if patient is intubated, GCS 7-9; (ii) cerebral contusions on CT scan. Patients are randomized into 2 groups. Both groups receive best supportive care. This is an active treatment control. One group additionally receives infusion of ODSH.

[4] = comparator, Rao et al. 2010; cited from earlier work

Substance | anticoagulant activity in the USP anticoagulant assay [1] | anticoagulant activity in the USP anticoagulant assay (e.g. value) [1] [U] | secondary brain injury [2] | inflammatory biomarkers [3] | Glasgow Outcome Scale scores ([3]; at 6 months) | Montreal Cognitive Assessment (MoCA) score ([3]; six months post-injury) | activity in the USP anticoagulant assay [4]
2-O, 3-O-desulfated heparin [ODSH] | less than 9 U/mg | 7±0.3 | reduction of secondary brain injury; also recorded: reduced secondary brain injury | reduces | improves | improves | –
unfractionated heparin | – | – | – | – | – | – | 165-190 U/mg
